Columns and labels:
DSS-induced colitis = DSS-induced colitis model; type: in vivo, Balb/c mice; conditions: 30 mg/kg orally once a day for 5-7 successive days; 1-3% DSS in water for 5-7 days
Description: Evaluation of Compounds in DSS-Induced Colitis Model
A 1-3% solution of dextran sulfate sodium (hereinafter abbreviated as DSS; ICN) in purified water (Otsuka Pharmaceutical) was fed freely to 6- to 7-week-old male Balb/c mice (Charles River Japan) for 5-7 days to induce colitis. Disease Activity Index (hereinafter abbreviated as DAI) scored based on fecal hardness, blood content in feces and body weight change, the number of neutrophils infiltrating the colon and the length of the colon were used as indexes to evaluate compounds. Each compound was suspended or dissolved in an aqueous solution containing 0.5% methyl cellulose (Wako), and orally administered at 30 mg/kg once a day, for 5-7 successive days.

[1] = test system: human peripheral blood neutrophils; assay: Human peripheral blood neutrophil adhesion system (adhesion to immobilized HUVEC, PMA-stimulated); type: cell-based; conditions: concentration inhibiting by 50% the PMA-stimulated increase in number of adhered BCECF-AM labeled neutrophils on HUVEC immobilized plate
Method: Evaluation of Compounds in Human Peripheral Blood Neutrophil Adhesion System
<Preparation of Human Peripheral Blood Neutrophils>
To a plastic centrifugation tube containing 100 units of heparin sodium (Shimizu Pharmaceutical) was added 25 ml of fresh blood sampled from a healthy human. After adding and mixing therewith 8 ml of physiological saline (Otsuka Pharmaceutical) containing 6% Dextran (Nacalai), the mixture was allowed to stand room temperature for 45 minutes for sedimentation of the erythrocytes. The resultant supernatant was transferred to another plastic centrifugation tube and combined with an equivalent volume of phosphate-buffered saline (hereinafter abbreviated as PBS; Sigma), and then centrifuged at 1600 rpm for 7 minutes at room temperature. The obtained hematocyte fraction was suspended in 4 ml of PBS, and the suspension was superposed on 4 ml of Ficoll-Paque™ PLUS (Amersham Biosciences). The resultant bilayer liquid was centrifuged at 2000 rpm for 30 minutes at room temperature, after which the supernatant was removed and the precipitate was suspended in 10 ml of PBS and centrifuged at 1200 rpm for 7 minutes, and the supernatant was removed. The resulting precipitate was suspended in 0.5 ml of PBS again, and then 10 ml of distilled water (Otsuka Pharmaceutical) was added, 0.5 ml of an aqueous solution containing 3 M NaCl was immediately added to restore isotonicity, the mixture was centrifuged at 1200 rpm for 7 minutes, and the obtained precipitate was suspended in PBS containing 1 mg/ml bovine serum albumin (hereinafter abbreviated as BSA; Sigma) again and stored in ice until being used for the experiment.
<Fluorescent Labeling of Human Peripheral Blood Neutrophils>
The obtained neutrophils were suspended in PBS containing 1 mg/ml BSA at 2×10^7 cells/ml. BCECF-AM (Dojin) was added to a final concentration of 5 μM, and the mixture was incubated at 37° C. for 45 minutes. It was then rinsed twice with PBS containing 1 mg/ml BSA by centrifugation, suspended again in PBS containing 1 mg/ml BSA at 5×10^7 cells/ml, and stored in ice until use.
<Preparation of HUVEC Immobilized Plate>
Human umbilical vein endothelial cells (hereinafter abbreviated as HUVEC) were suspended in MCDB131 medium (Chlorella Industries) containing 10% fetal calf serum and 30 μg/ml endothelial cell growth supplement (Becton Dickinson Bioscience). The suspension was added at 7.5×10^3 cells/well to a 96-well plate (Iwaki) immobilized with type I collagen, and cultured for 3 days in a CO2 incubator (Hirasawa). Upon confirming confluency of the cells, the supernatant was discarded, the plate was rinsed twice with PBS, and then PBS containing 0.1% glutaraldehyde (Kanto Kagaku) was added at 100 μl/well and the HUVECs were immobilized for 5 minutes. The supernatant was discarded and the plate was washed twice with PBS, and then PBS was added at 100 μl/well and the mixture was stored at 4° C. until use.
To 6.5 ml of RPMI-1640 medium (Sigma) containing 1 mg/ml of BSA were added 0.5 ml of a suspension of BCECF-AM labeled neutrophils at 5×10^7/ml stored in ice, which was mixed, and the mixture was added at 80 μl/well to a HUVEC immobilized plate. […] The supernatant was removed from the plate, which was then washed several times with RPMI-1640 at 100 μl/well, and then PBS containing 0.1% NP-40 (Calbiochem) was added thereto at 100 μl/well and the fluorescent intensity was measured with an ARVO™SX 1420 multi label counter (Wallac) to determine the number of adhered cells. […]

In the case of `CCCCN1CCN(c2cc(C#N)ccc2[C@H]2CC[C@@H](C(C)(C)C)CC2)CC1.Cl` [Example 12, cis-4-(4-t-Butylcyclohexyl)-3-(4-butylpiperazine-1-yl)benzonitrile hydrochloride], the “improvement in comparison with the DSS control group (DAI, number of neutrophils infiltrating the colon, length of the colon)” value (DSS-induced colitis) is reported as “particularly good improvement” and the IC50 [1] is reported as 18.3 µM.

In the case of `CCCCN1CCN(c2cc(C#N)ccc2[C@H]2CC[C@H](C(C)(C)C)CC2)CC1.Cl` [Example 13, trans-4-(4-t-Butylcyclohexyl)-3-(4-butylpiperazin-1-yl)benzonitrile hydrochloride], the “improvement in comparison with the DSS control group (DAI, number of neutrophils infiltrating the colon, length of the colon)” value (DSS-induced colitis) is reported as “particularly good improvement” and the IC50 [1] is reported as 53.9 µM.

From US7410971B2, “1,2-di(cyclic)substituted benzene compounds” (Eisai R&D Management Co., Ltd., priority 2003, dated 2008)
